Source: ChEMBL document CHEMBL5465560, “Selectivity Literature for EUbOPEN Chemogenomic Library” (2024)

Assays:
[1] = target: Dual specificity tyrosine-phosphorylation-regulated kinase 1B (Homo sapiens, UniProt Q9Y463); assay: Selectivity interaction (KinomeScan (DiscoverX)) EUB0000655a DYRK1B; conditions: at 10 µM
[2] = target: Phosphatidylinositol 4,5-bisphosphate 3-kinase catalytic subunit gamma isoform (Homo sapiens) (UniProt P48736); assay: Selectivity interaction (Kinase panel (KiNativ target engagement assay in Jurkat cells)) EUB0001635a PIK3CG; type: cell-based; conditions: at 1 µM
[3] = tested on: Receptor-type tyrosine-protein kinase FLT3 (Homo sapiens), P36888 [UNDEFINED MUTATION]; assay: (§1) Selectivity interaction (KinomeScan (DiscoverX)) EUB0000595a FLT3; conditions: at 10 µM
[4] = target: Receptor-type tyrosine-protein kinase FLT3 (Homo sapiens) (UniProt P36888); assay: as §1; conditions: at 10 µM
[5] = tested on: T1, Receptor-type tyrosine-protein kinase FLT3 (Homo sapiens), P36888 [R834Q]; assay: as §1; conditions: at 10 µM
T1 sequence (whole entry): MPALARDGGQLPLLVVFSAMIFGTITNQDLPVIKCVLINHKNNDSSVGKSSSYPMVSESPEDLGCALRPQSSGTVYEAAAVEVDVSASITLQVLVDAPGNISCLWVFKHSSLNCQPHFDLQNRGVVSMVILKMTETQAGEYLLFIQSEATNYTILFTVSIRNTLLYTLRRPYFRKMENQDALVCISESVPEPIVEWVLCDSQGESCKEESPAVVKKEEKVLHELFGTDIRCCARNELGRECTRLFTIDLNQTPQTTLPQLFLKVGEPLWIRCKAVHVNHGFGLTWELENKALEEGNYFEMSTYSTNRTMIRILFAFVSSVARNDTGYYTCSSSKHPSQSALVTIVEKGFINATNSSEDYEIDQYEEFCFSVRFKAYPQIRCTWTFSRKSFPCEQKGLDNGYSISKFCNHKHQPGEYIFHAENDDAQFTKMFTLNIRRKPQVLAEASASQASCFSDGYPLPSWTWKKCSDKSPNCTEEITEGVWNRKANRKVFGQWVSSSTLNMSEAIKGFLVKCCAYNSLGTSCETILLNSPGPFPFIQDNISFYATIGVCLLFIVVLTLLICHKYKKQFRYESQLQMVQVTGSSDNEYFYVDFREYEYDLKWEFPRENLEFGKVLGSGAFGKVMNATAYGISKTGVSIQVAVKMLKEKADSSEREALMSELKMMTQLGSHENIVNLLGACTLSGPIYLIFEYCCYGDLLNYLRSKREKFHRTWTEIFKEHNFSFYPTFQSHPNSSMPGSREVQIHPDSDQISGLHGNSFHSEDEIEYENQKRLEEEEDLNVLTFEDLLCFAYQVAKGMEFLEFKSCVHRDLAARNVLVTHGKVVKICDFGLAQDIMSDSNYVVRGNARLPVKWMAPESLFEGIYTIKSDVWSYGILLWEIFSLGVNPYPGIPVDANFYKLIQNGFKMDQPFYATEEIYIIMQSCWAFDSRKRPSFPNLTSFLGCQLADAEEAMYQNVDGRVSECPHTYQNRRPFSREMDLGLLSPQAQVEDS

[6] = target: T2, Serine/threonine-protein kinase 36 (Homo sapiens) (UniProt Q9NRP7); assay: Selectivity interaction (KinomeScan (DiscoverX)) EUB0000045b STK36
T2 sequence (whole entry): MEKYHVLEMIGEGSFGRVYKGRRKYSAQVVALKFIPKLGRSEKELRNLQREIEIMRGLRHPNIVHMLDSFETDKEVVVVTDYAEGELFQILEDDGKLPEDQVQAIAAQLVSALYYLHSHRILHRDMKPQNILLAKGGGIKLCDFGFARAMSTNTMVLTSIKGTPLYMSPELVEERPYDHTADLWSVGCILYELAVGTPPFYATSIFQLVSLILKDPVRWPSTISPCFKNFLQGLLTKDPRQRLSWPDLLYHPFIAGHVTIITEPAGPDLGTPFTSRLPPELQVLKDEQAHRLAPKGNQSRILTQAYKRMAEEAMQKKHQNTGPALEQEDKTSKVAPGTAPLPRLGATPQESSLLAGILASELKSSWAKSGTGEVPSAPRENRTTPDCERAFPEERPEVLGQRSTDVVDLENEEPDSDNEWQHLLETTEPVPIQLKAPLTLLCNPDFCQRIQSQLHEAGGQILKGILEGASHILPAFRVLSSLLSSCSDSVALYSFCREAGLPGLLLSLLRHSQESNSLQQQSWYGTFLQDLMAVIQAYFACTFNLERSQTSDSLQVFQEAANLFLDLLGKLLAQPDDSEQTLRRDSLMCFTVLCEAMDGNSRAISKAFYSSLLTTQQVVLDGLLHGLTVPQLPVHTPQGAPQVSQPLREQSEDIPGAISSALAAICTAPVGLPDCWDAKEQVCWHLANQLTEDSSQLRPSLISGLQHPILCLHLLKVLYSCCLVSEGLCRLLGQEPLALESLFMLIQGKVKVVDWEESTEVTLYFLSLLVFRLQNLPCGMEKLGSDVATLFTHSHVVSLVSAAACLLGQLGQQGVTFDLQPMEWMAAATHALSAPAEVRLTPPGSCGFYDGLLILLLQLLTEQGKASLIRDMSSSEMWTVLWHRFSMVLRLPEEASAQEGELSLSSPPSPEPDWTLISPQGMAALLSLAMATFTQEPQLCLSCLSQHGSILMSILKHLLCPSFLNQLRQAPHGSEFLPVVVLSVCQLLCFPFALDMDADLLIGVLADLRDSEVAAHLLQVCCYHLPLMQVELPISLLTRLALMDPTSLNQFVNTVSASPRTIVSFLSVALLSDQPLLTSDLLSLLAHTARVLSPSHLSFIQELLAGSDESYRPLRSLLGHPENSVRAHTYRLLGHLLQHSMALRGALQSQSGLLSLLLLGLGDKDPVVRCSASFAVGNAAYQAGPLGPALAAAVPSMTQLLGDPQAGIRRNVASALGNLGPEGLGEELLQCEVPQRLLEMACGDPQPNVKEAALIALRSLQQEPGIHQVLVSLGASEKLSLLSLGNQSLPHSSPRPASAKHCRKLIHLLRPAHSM

Dual specificity tyrosine-phosphorylation-regulated kinase 1B, sequence (Q9Y463 whole entry, looked up, canonical isoform): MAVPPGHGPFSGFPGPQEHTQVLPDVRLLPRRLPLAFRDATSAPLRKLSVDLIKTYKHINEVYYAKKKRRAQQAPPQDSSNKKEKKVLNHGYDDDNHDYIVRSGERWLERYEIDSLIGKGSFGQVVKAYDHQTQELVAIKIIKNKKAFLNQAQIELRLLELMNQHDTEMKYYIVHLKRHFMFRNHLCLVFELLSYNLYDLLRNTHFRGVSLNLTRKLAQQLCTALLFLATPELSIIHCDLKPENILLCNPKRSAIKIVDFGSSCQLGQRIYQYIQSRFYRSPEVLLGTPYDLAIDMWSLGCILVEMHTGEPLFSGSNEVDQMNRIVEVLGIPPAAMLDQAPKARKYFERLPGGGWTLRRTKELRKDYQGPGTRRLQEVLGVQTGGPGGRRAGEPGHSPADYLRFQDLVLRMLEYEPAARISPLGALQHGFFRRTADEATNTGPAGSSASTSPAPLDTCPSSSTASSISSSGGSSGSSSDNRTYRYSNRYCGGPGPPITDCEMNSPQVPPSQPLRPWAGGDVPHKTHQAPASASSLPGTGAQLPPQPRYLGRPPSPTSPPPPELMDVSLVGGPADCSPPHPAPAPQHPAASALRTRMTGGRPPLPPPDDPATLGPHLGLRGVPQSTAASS
Phosphatidylinositol 4,5-bisphosphate 3-kinase catalytic subunit gamma isoform (Homo sapiens), sequence (P48736 whole entry, looked up, canonical isoform): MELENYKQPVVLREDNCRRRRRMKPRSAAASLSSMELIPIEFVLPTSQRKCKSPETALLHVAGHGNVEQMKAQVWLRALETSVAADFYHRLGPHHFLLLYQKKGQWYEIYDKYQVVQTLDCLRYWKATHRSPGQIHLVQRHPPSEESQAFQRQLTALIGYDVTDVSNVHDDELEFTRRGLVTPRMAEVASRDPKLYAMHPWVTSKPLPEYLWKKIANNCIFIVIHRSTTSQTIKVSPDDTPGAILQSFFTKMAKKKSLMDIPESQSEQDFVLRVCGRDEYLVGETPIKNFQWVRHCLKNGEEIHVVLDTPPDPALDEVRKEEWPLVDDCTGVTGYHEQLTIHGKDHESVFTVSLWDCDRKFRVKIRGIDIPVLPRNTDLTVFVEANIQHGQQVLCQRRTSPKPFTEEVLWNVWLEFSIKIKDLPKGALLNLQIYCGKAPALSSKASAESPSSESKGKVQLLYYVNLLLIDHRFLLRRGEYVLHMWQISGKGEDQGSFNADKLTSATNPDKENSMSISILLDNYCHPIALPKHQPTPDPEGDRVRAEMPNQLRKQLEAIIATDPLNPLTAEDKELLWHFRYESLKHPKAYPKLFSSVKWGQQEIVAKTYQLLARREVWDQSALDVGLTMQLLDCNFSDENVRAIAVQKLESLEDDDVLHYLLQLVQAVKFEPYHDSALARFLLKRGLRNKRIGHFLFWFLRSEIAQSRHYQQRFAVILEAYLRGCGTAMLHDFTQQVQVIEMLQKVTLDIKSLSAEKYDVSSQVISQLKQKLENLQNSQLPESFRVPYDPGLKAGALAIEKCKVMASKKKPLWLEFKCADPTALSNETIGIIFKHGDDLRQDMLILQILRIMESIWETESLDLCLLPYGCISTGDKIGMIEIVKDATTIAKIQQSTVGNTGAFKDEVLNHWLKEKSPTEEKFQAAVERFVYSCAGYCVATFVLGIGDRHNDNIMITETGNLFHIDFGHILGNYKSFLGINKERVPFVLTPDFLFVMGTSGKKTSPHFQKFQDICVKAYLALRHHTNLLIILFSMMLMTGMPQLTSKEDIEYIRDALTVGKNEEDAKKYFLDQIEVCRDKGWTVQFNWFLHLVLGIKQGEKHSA

CN(C)CCOc1ccc(-c2nc(-c3ccncc3)c(-c3ccc4c(c3)CC/C4=N\O)[nH]2)cc1
% of control [1]: 100%

C=CC(=O)Nc1ccc(C(=O)Nc2[nH]nc3c2CN(C(=O)N[C@H](CN(C)C)c2ccccc2)C3(C)C)cc1
% of engagement [2]: -3.7%

COCC(=O)NC/C=C/c1ccc2ncnc(Nc3ccc(Oc4ccc(C)nc4)c(C)c3)c2c1 [CP-724714]
% of control [3]: 87%
% of control [4]: 100%
% of control [5]: 100%

C=CC(=O)Nc1cc(-n2c(=O)ccc3cnc4ccc(-c5ccc(NS(C)(=O)=O)cc5)cc4c32)ccc1C
% of control ([6]; at 1 µM): 100%
% of control ([6]; at 10 µM): 100%
